# Experimental data reported in patent US20170115265A1, “Use of Visibly Detectable Compounds as Performance Reference Compounds in Passive Sampling Devices” (Geosyntec Consultants, Inc., priority 2015, published 2017).
# Like-named read-outs stand apart in the source and are kept apart here.
# How the values were obtained:
# [1] = cited from earlier work; for Log KOW value (may be estimate): common dyes, Table 1, values said to be known; for Log KOW value: drugs, reported by Scheytt et al. 2005; for Log KOW: source not stated
# [2] = Example 1: elimination of PRCs from PE passive sampling devices deployed 14 days in marine aquatic sediment; assay type: physicochemical; conditions: PE PSD at Station 6, marine sediment
# Source text: Twenty PSDs were created (each consisting of a 4×10 cm piece of PE). Ten of the PSDs were spiked with PCB-36 (which is not visibly detectable) and ten of the PSDs were spiked with Sudan III, a visibly detectable PRC within the scope of the present disclosure. The 20 spiked PSDs then were inserted in the top 10 cm of aquatic sediment at a marine (ocean) site by scuba divers at ten locations within a half-acre area. At each of the 10 locations, one PSD containing PCB-36 and one PSD containing Sudan III were deployed.
# After 14 days, the PSDs were collected by divers, brought to the surface, placed in a shipping container, and sent to a laboratory, where they were wiped with moistened tissues, placed in small vials, and extracted with solvent. […] The 13 solvents (from extraction of 10 exposed PSDs and 3 trip blanks PSDs) into which the PCB-36-spiked PSDs were extracted were then measured for PCBs using high-resolution gas chromatography/high-resolution mass spectrometry with an approximate 30- to 60-minute analysis time per sample. Via this analysis, the concentrations of PCB-36 in the 13 PCB-36-spiked PSDs were determined. […] Via this analysis, the concentration of Sudan III in the 13 Sudan III-spiked PSDs was determined. […]
# [3] = Example 2: hypothetical 28-day sediment deployment of PE PSD spiked with three dye PRCs; assay type: physicochemical; conditions: for Log10-transformed ke (hypothetical) / ke (hypothetical): PE PSD 28 days in sediment
# Source text: Two PSD could be created (each consisting of a 4×10 cm piece of PE).
# The KPE values of the 3 dyes are dissimilar to that of PCB-60, yet they may be used to provide a ke for PCB-60 according to the following approach. One PSD containing the three above dyes would be deployed into sediment for a period of 28 days, and the other PSD containing the three above dyes would be held in storage. Following retrieval of the PSD deployed in the sediment, both PSDs would be extracted in solvent (e.g., 50-mL mixture of hexane and methylene chloride). […] Concentrations of these dyes in the PE could be calculated assuming a known mass of each PE piece. The solvent extract of the PSD that had been exposed to the sediment for 28 days would be measured for PCBs using high-resolution gas chromatography/high-resolution mass spectrometry with an approximate 30- to 60-minute analysis time per sample. Via this analysis, the concentration of PCB-60 in the PSD that had been exposed to the sediment for 28 days could be determined.
# (§1) A linear regression model would then be estimated using the Log10 ke values as the dependent variable (y axis) and the Log10 KPE values as the independent variable […].
# FIG. 2 is a line graph showing this equation plotted as Log10 Ke (day-1) versus Log10 KPE (liters/kg/PE). […] By using the equation from the plot shown in FIG. 2, the predicted ke value of PCB-60 could be interpolated from its known KPE value.
# [4] = polyethylene-water partition coefficient (KPE) of PCBs according to Smedes et al.; assay type: physicochemical; conditions: Log10 of the cited KPE
# Source text: Assuming the KPE values are roughly similar (i.e., within 10%) between the dye and the analyte of interest, the dye could also be an appropriate PRC to use for other compounds. For example, given that KPE Sudan III KPE is 390,000 L/kg, Sudan III could be used as a PRC for compounds with KPE values from 350,000 L/kg to 430,000 L/kg.
# [5] = Example 7: elimination of dye PRCs from PE PSDs in jars of sediment and water agitated 14 days on a shaker table; assay type: physicochemical; conditions: PE PSD
# Source text: Two additional 3×3 cm PSDs were spiked with 10 unlabeled PCB PRCs that are not visibly detectable, but are routinely used as PRCs in passive sampling applications.
# The five jars containing the PSDs were closed and agitated for a period of 14 days on a shaker table. The other four dye-spiked PSDs and PCB-spiked PSD were held in storage. Following retrieval of the PSDs deployed in the sediment after 14 days, the PSDs were extracted in solvent (e.g., 50-mL mixture of hexane and methylene chloride). […] Concentrations of these dyes in the PE could be calculated assuming a known mass of each PE piece. The solvent extracts of the PSDs that had been exposed to the sediment for 14 days and held in storage for 14 days would be measured for PCBs using high-resolution gas chromatography/high-resolution mass spectrometry with an approximate 30- to 60-minute analysis time per sample.
# as §1
# [6] = Example 8: Sudan III elimination from PE PSDs, marine sediment versus agitated sediment, 14 days; assay type: physicochemical
# Procedure: Six 3×3 cm PSDs and fourteen 4×10 cm PSDs were spiked with Sudan III dye. Eleven of the larger (4×10 cm) PSDs were inserted in the top 10 cm of aquatic sediment at a marine (ocean) site by scuba divers at ten locations within a half-acre area. Three of the smaller (3×3 cm) PSDs were deployed into […] 8-oz jars containing approximately 100 g (wet weight) sediment and 150 mL water. The three jars containing the PSDs were closed and agitated for a period of 14 days on a shaker table. […] The solvents from the PSDs were analyzed on a benchtop UV/Vis spectrophotometer at wavelengths of 465 nm (to indicate the concentration of Sudan III in the solvent). Concentrations of these dyes in the PE could be calculated assuming a known mass of each PE piece.
# Using the average concentrations of Sudan III in the unexposed PSDs (to represent the t=0 concentration) and the concentration of Sudan III in the PSDs that had been exposed to the marine sediment and agitated sediment for 14 days (the time t concentrations), one could estimate the ke values using the equation provided in Example 1. […] Thus, the dye approach can be used to quantify the increase in sampling rates for various methods (i.e., unagitated deployments, various types of agitated deployments), and provides a low cost and efficient method compared to other PRCs.
compound,measurement,setting,value
COc1ccc(OC)c(N=Nc2c(O)ccc3ccccc23)c1 [Citrus Red 2],Log KOW value (may be estimate),[1],5.67
CC(C)(Oc1ccc(Cl)cc1)C(=O)O [Clofibric acid],Log KOW value,[1],2.88
O=C(O)Cc1ccccc1Nc1c(Cl)cccc1Cl [Diclofenac],Log KOW value,[1],1.9
CC(C)Cc1ccc(C(C)C(=O)O)cc1 (centres unmarked) [Ibuprofen],Log KOW value,[1],2.48
O=C1/C(=C2\Nc3ccccc3C2=O)Nc2ccccc21 [Indigo dye],Log KOW value (may be estimate),[1],3.7
Clc1cccc(-c2cc(Cl)cc(Cl)c2)c1 [PCB-36],elimination rate ke,[2],0.043 day⁻¹
Clc1ccc(-c2ccc(Cl)c(Cl)c2Cl)cc1 [PCB-60],estimated hypothetical ke interpolated from KPE,[3]; from regression of FIG. 2,0.028 day⁻¹
same,Log10 KPE,[4],5.9 L/kg PE
Cc1c(C(C)C)c(=O)n(-c2ccccc2)n1C [Propyphenazone],Log KOW value,[1],2.02
CCN(CC)c1ccc2c(-c3ccccc3C(=O)O)c3ccc(=[N+](CC)CC)cc-3oc2c1.[Cl-] [Rhodamine B],Log KOW,[1]; dye compounds of Table 2,1.8
Cc1ccc(Nc2ccc(O)c3c2C(=O)c2ccccc2C3=O)cc1 [Solvent Violet 13],Log10-transformed ke (hypothetical),[3],-1.7 day^−1
same,ke (hypothetical),[3],0.02 day⁻¹
same,Log KOW,[1]; dye compounds of Table 2,6.2
same,Log KOW,[1]; dye compounds of Table 4,6.2
same,ke,[5],0.16 day⁻¹
CC1(C)Nc2cccc3c(N=Nc4ccc(N=Nc5ccccc5)c5ccccc45)ccc(c23)N1 [Sudan Black B],Log KOW,[1]; dye compounds of Table 4,8.8
same,Log10-transformed ke,[5],-3.1 log10(day^−1)
same,ke,[5],0.00072 day⁻¹
Oc1ccc2ccccc2c1N=Nc1ccc(N=Nc2ccccc2)cc1 [Sudan III],Log10-transformed ke (hypothetical),[3],−1.4 day^−1
same,ke (hypothetical),[3],0.04 day⁻¹
same,Log KOW,[1]; dye compounds of Table 2,5.7
same,Log KOW,[1]; dye compounds of Table 4,5.7
same,average ke,[6]; agitated sediment (shaker table),0.094 day⁻¹
same,average ke,[6]; marine sediment (unagitated),0.030 day⁻¹
same,elimination rate ke,[2],0.032 day⁻¹
same,ke,[5],0.046 day⁻¹
Oc1ccc2ccccc2c1N=Nc1ccccc1 [Sudan I],Log KOW,[1]; dye compounds of Table 2,5.5
Oc1ccc(N=Nc2ccccc2)c(O)c1 [Sudan Orange G],Log10-transformed ke (hypothetical),[3],−0.1 day^−1
same,ke (hypothetical),[3],0.8 day⁻¹
same,Log KOW,[1]; dye compounds of Table 2,3.9
same,Log KOW,[1]; dye compounds of Table 4,3.9
same,ke,[5],0.41 day⁻¹
